{
  "source": "paper PMC2880193",
  "about": "(Archives of biochemistry and biophysics, 2010)",
  "target": "T1, Put1p (Put1pΔ18) (Saccharomyces cerevisiae, UniProt P09368)",
  "T1 sequence (P09368 19-476)": "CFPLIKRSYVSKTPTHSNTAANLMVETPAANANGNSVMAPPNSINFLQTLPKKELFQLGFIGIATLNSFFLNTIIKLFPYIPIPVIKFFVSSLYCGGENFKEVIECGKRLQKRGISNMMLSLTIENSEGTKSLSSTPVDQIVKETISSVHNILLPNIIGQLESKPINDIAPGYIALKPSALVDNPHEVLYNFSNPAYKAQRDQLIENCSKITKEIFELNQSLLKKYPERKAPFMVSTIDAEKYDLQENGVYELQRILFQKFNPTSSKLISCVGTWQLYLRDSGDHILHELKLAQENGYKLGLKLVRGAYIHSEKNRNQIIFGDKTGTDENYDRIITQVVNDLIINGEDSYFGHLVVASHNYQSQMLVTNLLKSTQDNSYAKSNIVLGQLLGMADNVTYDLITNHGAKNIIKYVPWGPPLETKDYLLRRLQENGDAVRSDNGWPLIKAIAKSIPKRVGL",
  "experiment": "proline:DCPIP assay, Lineweaver-Burk plot",
  "format": "biochemical",
  "data": [
    {"smiles": "O=C(O)[C@@H]1CCCO1", "note": "[L-THFA]", "values": [
      {"measurement": "Ki", "result": 5.3, "unit": "mM"}
    ]}
  ]
}
